Source: ChEMBL document CHEMBL1150451, “Synthetic studies on the furan ring of wortmannin” (Bioorg Med Chem Lett, 1995)

Experiment: Inhibition of Phosphatidylinositol 3-kinase

| IC50 [µM] | SMILES |
| --- | --- |
| > 0.5 | C/N=C/C1=C(O)O[C@H](COC)[C@@]2(C)C1=C(O)C(=O)C1=C2[C@H](OC(C)=O)C[C@]2(C)C(=O)CC[C@@H]12 |
| > 0.5 | COC[C@H]1OC(O)=C(C=N)C2=C(O)C(=O)C3=C([C@H](OC(C)=O)C[C@]4(C)C(=O)CC[C@@H]34)[C@]21C |
| > 0.5 | COC[C@H]1OC(=O)C(=C(C)C)C2=C(O)C(=O)C3=C([C@H](OC(C)=O)C[C@]4(C)C(=O)CC[C@@H]34)[C@]21C |
| > 0.5 | CC/N=C/C1=C(O)O[C@H](COC)[C@@]2(C)C1=C(O)C(=O)C1=C2[C@H](OC(C)=O)C[C@]2(C)C(=O)CC[C@@H]12 |
| > 0.5 | CCC/N=C\C1=C(O)O[C@H](COC)[C@@]2(C)C1=C(O)C(=O)C1=C2[C@H](OC(C)=O)C[C@]2(C)C(=O)CC[C@@H]12 |
| 0.271 | COC[C@H]1OC(=O)C2=CCOC3=C2[C@@]1(C)C1=C(C3=O)[C@@H]2CCC(=O)[C@@]2(C)C[C@H]1OC(C)=O |
| 0.08 | CCN(/C=C1/C(=O)O[C@H](COC)[C@@]2(C)C1=C(O)C(=O)C1=C2[C@H](OC(C)=O)C[C@]2(C)C(=O)CC[C@@H]12)CC |
| > 0.5 | COC[C@H]1OC(=O)C23CC2COC2=C3[C@@]1(C)C1=C(C2=O)[C@@H]2CCC(=O)[C@@]2(C)C[C@H]1OC(C)=O (some centres undefined) |

| SMILES | IC50 [µM] |
| --- | --- |
| COC[C@H]1OC(=O)c2coc3c2[C@@]1(C)C1=C(C3=O)[C@@H]2CCC(=O)[C@@]2(C)C[C@H]1OC(C)=O [WORTMANNIN] | 0.0042 |
